Experiment [1] deals with HeLa human cervical carcinoma cells. Kind of experiment: High-content analysis of mitotic arrest in HeLa cells. It is filed as cell-based. Conditions: for Microtubule Density MDEC (minimum detectable effective concentration) / Mitotic Index MDEC (percentage of phosphohistone H3-positive cells) / Nuclear Condensation MDEC (minimum detectable effective concentration) / EC50: 20 hours treatment, average of four experiments ± SD; for EC50: Homo sapiens, read-out: Cell Density EC50; for activity in high-content analysis of mitotic arrest (in words): all endpoints measured. The protocol: The effects of tubulysin analogs on mitotic arrest and cellular microtubules were studied. HeLa human cervical carcinoma cells (10,000 per well) were plated in collagen-1 coated 384-well microplates and were treated with vehicle (DMSO) or ten two-fold concentration gradients of test agents within 4-6 hours of seeding. Cells were incubated for 20 hours at 37° C., fixed with formaldehyde, and labeled with 10 μg/mL Hoechst 33342 in Hank's balanced salt solution (HBSS). Cells were permeabilized with 0.5% (w/w) Triton X-100 for 5 min at room temperature and incubated with a primary antibody cocktail consisting of an HBSS solution containing rabbit polyclonal anti-phosphohistone H3 (Ser10, 1:500, Upstate), and mouse monoclonal anti-α-tubulin (1:3000, Sigma), followed by a mixture of FITC-labeled donkey anti-mouse IgG (1:500) and Cy3-labeled donkey anti-rabbit IgG (1:500). Cells were rinsed once with HBSS and stored at 4° C. in HBSS until analysis.
Microplates were analyzed with an ArrayScanII instrument (Cellomics, Pittsburgh, Pa.) using the Target Activation Bioapplication (Cellomics, Inc.). Within the application, 1,000 individual cells in each well were imaged at three different wavelengths, using an Omega XF93 filter set at excitation/emission wavelengths of 350/461 nm (Hoechst), 494/519 nm (FITC), and 556/573 nm (Cy3). The following parameters were used for data analysis: average nuclear intensity, nuclei per field, average nuclear FITC intensity, and average nuclear Cy3 intensity. A nuclear mask was generated from Hoechst 33342-stained nuclei. Microtubule density and histone H3 phosphorylation were measured in the FITC and Cy3 channel, respectively. Microtubule density was defined as the average green (FITC) pixel intensity in an area defined by the nuclear mask. For determination of mitotic index and nuclear condensation, thresholds for Hoechst 33342 and phosphohistone-H3 intensities were defined as the average Hoechst 33342 or Cy3 intensity plus one standard deviation from twenty-eight vehicle-treated wells placed in the center of the microplate.
Cells were classified as positive if their average Hoechst 33342 or Cy3 intensity exceeded this threshold. To illustrate visually the effects of test agents on cellular microtubules and mitotic arrest, the identical 384-well plates then were used to acquire higher resolution images of selected wells.
Asynchronously growing HeLa cells were treated for 20 hours with each compound in collagen-coated 384 well microplates, fixed, and incubated with primary antibodies for tubulin and the mitotic marker protein phosphohistone H3, followed by FITC and Cy3-conjugated secondary antibodies, respectively. Cells were detected by nuclear counterstaining with Hoechst 33342, which also provided information about chromatin condensation and cell density as markers of cell death.

The subject of experiment [2] is T98G human glioblastoma cell line. Kind of experiment: Antiproliferative assay (MTS), GI50 in T98G cells. It is filed as cell-based. Conditions: for GI50: Homo sapiens, T98G. The text has this:
General methods are known for determining the effect of compounds on proliferation of cells. See, e.g., Zhu et al., J. Med. Chem., 2006, 49, 2063-2076. Cells can be selected by one of skill in the art and can be maintained as exponentially growing cultures in a suitable medium (e.g., RPMI 1640 medium) with adjuvents, including FBS, penicillin, and glutamine, provided at levels known to those skilled in this field. For human cancer cells, e.g., human glioblastoma cell line T98G, the cells can be trypsinized and washed prior to formation of a cell suspension in appropriate buffer and plating of the cell suspension. Typical microtiter plate amounts can be 500-2000 cells/well. The cells can be allowed to attach and grow for a defined time period (e.g., 36 hours, 72 hours, 96 hours, or other defined period) before treatment with either vehicle (e.g., dimethylsulfoxide) or test agent (e.g., compound of the invention) followed by an additional defined time period (e.g., 36 hrs, 72 hrs, 96 hrs, and the like). At the end of the additional defined time period, viability of the cells can be determined by any of a variety of methods known in the art, including assays employing MTS (3-(4,5-dimethylthiazol-2-yl)-5-(3-carboxymethoxyphenyl)-2-(4-sulfophenyl)-2H-tetrazolium), as described by -Cory et al., Cancer Commun., 1991, 3, 207-212. […] Replicates are typically assayed to allow determination of appropriate statistical properties as known in the art.
Compounds of the invention with structures of Formulae Xa, XVb, and XVa were assayed for inhibition of growth of the T98G human glioblastoma cell line (Table II).
Human glioblastoma T98G cells (American Type Culture Collection, Manassas, Va.) were maintained as exponentially growing cultures in an RPMI 1640 medium with 10% FBS, 1% penicillin and 1% glutamine. The cells were seeded into 96-well plates and allowed to attach and grow for 48 hours. One plate of cells was used for a time zero cell number determination (N=16), and cells in other plates were treated for 72 hours or 96 hours with either DMSO (1% v/v; N=8 for each plate) or a range of concentrations, in quadruplicate, of test agents. Cell number was determined spectrophotometrically at 490 nm minus absorbance at 630 nm after exposure to 3-(4,5-dimethylthiazol-2-yl)-5-(3-carboxymethoxyphenyl)-2-(4-sulfophenyl)-2H-tetrazolium (MTS) and N-methylphenazine methylsulfate. The fifty percent growth inhibitory concentrations (GI50) of test agents were calculated from the spectrophotometrically determined growth of the control cells over the 72- or 96-hour period.

For experiment [3], the system named is bovine brain tubulin. Kind of experiment: Inhibition of GTP-induced tubulin assembly (turbidimetry at 350 nm). It is filed as biochemical. The conditions noted are these: after 20 min at 30° C., 10 μM bovine brain tubulin, 0.8 M monosodium glutamate. How it is done:
Bovine brain tubulin was isolated to electrophoretic homogeneity from fresh brains via methodology described by Hamel and Lin, Biochemistry 23: 4173-84 (1984). Tubulin (final concentration 10 μM; 1 mg/mL) was preincubated with test agents dissolved in DMSO (4% v/v final concentration) and monosodium glutamate (0.8 M final concentration, pH 6.6) for 15 minutes at 30° C. The reaction mixture was cooled to 0° C., and GTP (0.4 mM final concentration) was added. Reaction mixtures were transferred to cuvettes held at 2.5° C. in a Beckmann DU 7400 multichannel, temperature-controlled (Peltier unit) spectrophotometer, reading absorbance (turbidity) at 350 nm in each cuvette every 15 seconds. Baselines were established and temperature was quickly raised to 30° C. (in approximately 1 minute). After 20 minutes, the temperature was returned to 2.5° C. The turbidity value after 20 minutes at 30° C. for GTP alone was assigned as 100% assembly, and for DMSO alone as 0% assembly. The IC50 was calculated by linear regression of the percent assembly values at the same time point obtained with 0.625, 1.25, 2.5, 5, 10 and 20 μM test agent. In experiments to test for disassembly of preformed tubulin polymer, the test agent was added after 7 minutes of GTP-induced assembly.

Where [4] appears, read: 72 h, read-out: GI50 at (72 h) in T98 glioblastoma cells.
[5] abbreviates: 72 h, read-out: GI50 in T98G cell, 72 h.
[6] abbreviates: 96 h, read-out: GI50 at 96 h in T98 glioblastoma cells.
The mark [7] stands for this setting: 96 h, read-out: GI50 in T98G cell, 96 h.

Results on three compounds are retold here after patent US20100047841A1, “SYNTHESIS OF DESACETOXYTUBULYSIN H AND ANALOGS THEREOF” (University of Pittsburgh-of the Commonwealth System of …, priority 2007, published 2010).

“Also recorded” adds a separate entry of the source. Where a name gives a salt, the structure may show the parent alone. Read-outs that look alike come from different tables or passages of the source.

As to `CCC(C)[C@H](NC(=O)[C@H]1CCCCN1C)C(=O)N(C)[C@H](C[C@@H](OC(C)=O)c1nc(C(=O)N[C@@H](Cc2ccccc2)C[C@H](C)C(=O)O)cs1)C(C)C` (some centres unmarked) [WZY-III-63C, N^14-Desacetoxytubulysin H trifluoroacetic acid salt], in experiment [1], the “Microtubule Density MDEC (minimum detectable effective concentration)” value (“Microtubule Density MDEC” below) was 0.16 ± 0.05 nM. For the same compound, the “Mitotic Index MDEC (percentage of phosphohistone H3-positive cells)” value in experiment [1] was found to be 0.10 ± 0.02 nM. Besides, in experiment [1], the “Nuclear Condensation MDEC (minimum detectable effective concentration)” value (from here on “Nuclear Condensation MDEC”) stood at 0.13 ± 0.04 nM. In experiment [1], the EC50 is 0.37 ± 0.09 nM. In addition, the “activity in high-content analysis of mitotic arrest (in words)” value (“activity in high-content analysis” below) in experiment [1] (trifluoroacetic acid salt) is recorded as “active in the picomolar range; also recorded: almost two orders of magnitude more potent than vincristine or paclitaxel; also recorded: activity in the picomolar range”. Also, the “potency relative to paclitaxel, vincristine, or WZY-III-69A” value in experiment [1] (all of the endpoints measured) is recorded as ~50 fold. Besides, the “loss in antiproliferative GI50 compared to dolastatin 10 and tubulysins A or D” value in experiment [2] is recorded as 1-2 orders of magnitude. In addition, the concentration for 50% growth inhibition (GI50) in experiment [2] (72 h) was 430 to 4400 nM; in experiment [2] (setting [4]) it was 4.4 nM; in experiment [2] (setting [5]), 4.4 ± 11 nM; in experiment [2] (96 h) it was 350 to 16000 nM; in experiment [2] (setting [6]) it was 1.6 ± 0.8 nM; in experiment [2] (setting [7]), 1.6 ± 0.8 nM. Moreover, it took 2300 nM to reach half-maximal inhibition in experiment [3] (IC50).

For `CCC(C)[C@H](NC(=O)CN(C)C)C(=O)N(C)[C@H](C[C@H](OC(C)=O)c1nc(C(=O)N[C@@H](Cc2ccccc2)C[C@H](C)C(=O)O)cs1)C(C)C` (stereo partly drawn) [WZY-III-64A, (2S,4R)-4-(2-((6S,9R,11S)-6-sec-Butyl-9-isopropyl-2,8-dimethyl-4,7,13-trioxo-12-oxa-2,5,8-triazatetradecan-11-yl)thiazole-4-carboxamido)-2-methyl-5-phenylpentanoic acid], the “Microtubule Density MDEC” value in experiment [1] worked out at 56.6 ± 30.9 nM. Also, in experiment [1], the “Mitotic Index MDEC (percentage of phosphohistone H3-positive cells)” value amounted to 23.9 ± 5.8 nM. Also, the “Nuclear Condensation MDEC” value in experiment [1] is 32.4 ± 8.6 nM. In addition, in experiment [1], the EC50 was 95.7 ± 20.8 nM. For the same compound, the “activity in high-content analysis” value in experiment [1] was “about five-fold less active”. Besides, the GI50 was 430 to 4400 nM in experiment [2] (72 h); 590 nM in experiment [2] (setting [4]); 590 ± 1000 nM in experiment [2] (setting [5]); 350 to 16000 nM in experiment [2] (96 h); 400 ± 30 nM in experiment [2] (setting [6]); 400 ± 30 nM in experiment [2] (setting [7]). Also, in experiment [3], the IC50 was > 5000 nM.

With `CCC(C)[C@H](NC(=O)CN(C)C)C(=O)N(C)[C@H](C[C@@H](OC(C)=O)c1nc(C(=O)N[C@@H](Cc2ccccc2)C[C@H](C)C(=O)O)cs1)C(C)C` (stereo partly drawn) [WZY-III-69A, (2S,4R)-4-(2-((6S,9R,11R)-6-sec-Butyl-9-iso-propyl-2,8-dimethyl-4,7,13-trioxo-12-oxa-2,5,8-triazatetradecan-11-yl)thiazole-4-carboxamido)-2-methyl-5-phenylpentanoic acid], the “Microtubule Density MDEC” value in experiment [1] is on record as 15.1 ± 11.1 nM. In experiment [1], the “Mitotic Index MDEC (percentage of phosphohistone H3-positive cells)” value is on record as 2.5 ± 0.4 nM. In experiment [1], the “Nuclear Condensation MDEC” value amounted to 12.4 ± 10.2 nM. In experiment [1], the half-maximal effective concentration (EC50) came out at 17.5 ± 6.6 nM. Also, the “activity in high-content analysis” value in experiment [1] was “as active as paclitaxel or vincristine”. Further, the GI50 in experiment [2] (72 h) is 430 to 4400 nM; in experiment [2] (setting [4]) it was 430 nM; in experiment [2] (setting [5]), 430 ± 130 nM; in experiment [2] (96 h), 350 to 16000 nM; in experiment [2] (setting [6]) it was 350 ± 40 nM; in experiment [2] (setting [7]), 350 ± 40 nM. The compound further yielded an IC50 in experiment [3] of 3100 nM.

For orientation: EC50 means the concentration giving half of the maximal effect. In general, GI50 refers to the concentration that inhibits growth by half. A word on the IC50: it is the concentration that inhibits the measured activity by half. A low value points to inhibition by little substance.
